Source: US20170022258A1, “PEPTIDES FOR USE IN THE TREATMENT OF IL-1 RELATED DISEASES AND CONDITIONS” (C4M PHARMACEUTICALS PTY LTD., priority 2011, published 2017)
Non-standard residues stand in square brackets, D forms with d. Residues, ends and D or L forms follow the SMILES beside them.

Tested on: IL-1α+IFN-γ induced IL-8 production by HT-29 cells
Assay: IL-1α+IFN-γ induced IL-8 production by HT-29 cells
Format: cell-based, human
Experimental: Human colon epithelial cell lines HT-29 and Caco2 obtained from the European Collection of Animal Cell Cultures (ECACC) were used in cell cultures. Cells were routinely cultured at 37° C. in an atmosphere of 5% CO2 in 80 cm^2 tissue culture flasks in McCoy's and DMEM medium, respectively, supplemented with penicillin (10 u/ml), streptomycin (10 μg/ml), fungizone (0.5 μg/ml), and 10% (v/v) FCS (referred to as complete medium) until confluent.
Confluent monolayers were sub-cultured into 6-well plates for experimental protocols. Cells were grown in 6-well plates until confluent. Twenty-four hours prior to the experiment the confluent monolayers were washed and cultured in FCS-free McCoy's medium. Growth arrested cultures were then treated with fresh FCS-free medium and stimulated with vehicle controls or various doses of IL-1α added alone or in combination with other pro-inflammatory cytokines (TNF-α, IFN-γ) in the presence or absence of the peptide of sequence 4 or IL-1 ra, in a dose and time dependent manner.
Supernatants were collected, centrifuged to remove cellular debris and stored at −70° C. until assayed for extracellular inflammatory mediators. Total RNA for RT-PCR was extracted as described above. Cell counting and viability was routinely checked at the beginning and the end of the experiment by phase microscopy and by trypan blue exclusion using representative wells. Mycoplasma tests were performed during the experimental protocol. Production of soluble mediators was assessed by commercially available ELISA in supernatants, RT-PCR in total RNA extractants and nitric oxide, as described in Kolios, G, et al. (1995). Br J Pharmacol, 116, 2866-2872, the contents of which are incorporated herein by reference.
Stimulation of HT-29 cells with a combination of pro-inflammatory cytokines induces increased secretion of chemokines, including IL-8 (as described in Kolios, G, et al. (1999). Eur J Immunol, 29, 530-536 the contents of which are herein incorporated by reference). […]

Compound: CC(=O)N[C@H](CC(C)C)C(=O)N1CCC[C@@H]1C(=O)N[C@H](CC(C)C)C(=O)N[C@H](C)C(=O)N[C@H](Cc1ccc(O)cc1)C(=O)N1CCC[C@@H]1C(=O)N[C@H](CCC(N)=O)C(=O)N[C@H](Cc1c[nH]c2ccccc12)C(=O)N[C@H](Cc1ccc(O)cc1)C(=O)NCC(=O)N1CCC[C@@H]1C(=O)N[C@@H](C(=O)N[C@H](Cc1c[nH]c2ccccc12)C(=O)N[C@H](CCC(=O)O)C(=O)N[C@H](Cc1ccccc1)C(=O)O)[C@H](C)O [SEQ ID NO. 4, Ac-LPLAYPQWYGPTWEF] (Ac-[dL][dP][dL][dA][dY][dP][dQ][dW][dY]G[dP][dT][dW][dE][dF]-OH; C-terminus assumed)
- IL-1α+IFN-γ induced IL-8 production (10 ng/ml IL-1α+300 U IFN-γ, peptide 5 ng/ml, stimulated control 78.79±6.99, n=3): 35.41±4.23 ng/ml per 106 cells
- Effect on IL-1α+IFN-γ induced IL-8 production (all concentrations used, 5 ng/ml-1 μg/ml, p<0.01, FIG. 3): inhibitory effect for all concentrations used
